Data: patent US8796201B2 (The Board of Trustees of the Leland Stanford Junior …, priority 2002, dated 2014)
“Also recorded” adds a separate entry of the source. Where no end group is shown, it is not given here.

How the values were obtained:
[1] = tested on: rat brush border membrane (BBM) peptidases; type: in vitro ADME; conditions: kidney or brush border membranes
Procedure: To investigate the digestion of gluten, liquid chromatography coupled mass spectroscopy analysis (LC-MS-MS) was utilized to investigate the pathways and associated kinetics of hydrolysis of immunodominant gliadin peptides treated with rat BBM preparations. Because the rodent is an excellent small animal model for human intestinal structure and function, rat BBM was chosen as a suitable model system for these studies.
BBM fractions were prepared from rat small intestinal mucosa as described in Ahnen et al. (1982) J. Biol. Chem. 257, 12129-35. […] No proline aminopeptidase (EC 3.4.11.5) or prolyl endopeptidase activity (PEP, EC 3.4.21.26) activity was detectable (<5 μU/μg). Alkaline phosphatase and sucrase were used as control BBM enzymes with activities of 66 μU/μg and 350 μU/μg, respectively.
BBM fractions were partially purified from the small intestinal mucosa of adult female rats maintained on an ad libitum diet of wheat-based standard rodent chow. Total protein content was determined by a modified method of Lowry with BSA as a standard. Alkaline phosphatase activity was determined with nitrophenyl phosphate. Sucrase activity was measured using a coupled glucose assay. […] PEP activity was determined continuously with 0.4 mM Z-Gly-Pro-pNA in PBS:H2O:dioxane (8:1.2:0.8) at 30° C. One unit is the consumption of 1 μmol substrate per minute.
Proteolysis with the BBM preparation was investigated using the peptide (SEQ ID NO:1) […], a product of chymotryptic digestion of α-9 gliadin (Arentz-Hansen et al. (2000) J. Exp. Med. 191, 603-12). […] It was subjected to BBM digestion, followed by LC-MS-MS analysis. A standard 50 μl digestion mixture contained 100 μM of synthetic peptide, 10 μM tryptophan and Cbz-tryptophan as internal standards, and resuspended BBM preparations with a final protein content of 27 ng/μl and exogenous proteins, as indicated, in phosphate buffered saline. After incubation at 37° C. for the indicated time, the enzymes were inactivated by heating to 95° C. for 3 minutes. The reaction mixtures were analyzed by LC-MS (SpectraSystem, ThermoFinnigan) using a C18 reversed phase column (Vydac 218TP5215, 2.1×150 mm) with water:acetonitrile:formic acid (0.1%):trifluoroacetic acid (0.025%) as the mobile phase (flow: 0.2 ml/min) and a gradient of 10% acetonitrile for 3 minutes, 10-20% for 3 minutes, 20-25% for 21 minutes followed by a 95% wash. Peptide fragments in the mass range of m/z=300-2000 were detected by electrospray ionization mass spectroscopy using a LCQ ion trap and their identities were confirmed by MSMS fragmentation patterns.
BBM fractions were prepared from rat small intestinal mucosa.

[2] = tested on: gastric and pancreatic proteases; experiment: Gastric and pancreatic protease digestion of recombinant α2-gliadin; type: in vitro ADME; conditions: extended reaction times
Description: […]. […] No long intermediate is observed to accumulate.

[3] = tested on: human brush border membrane (BBM); type: in vitro ADME; conditions: kidney or brush border membranes, 100 μM
Description: (SEQ ID NO:12) […]

[4] = In vivo perfusion of peptides through rat jejunum; conditions: 15-20 cm jejunum segment, residence time 20 min
Procedure: FIG. 5. In vivo brush border membrane digestion of peptides.
In Vivo Endopeptidase Activity. An adult (female or male) rat was anesthetized and maintained at 36-37° C. during the entire surgical procedure. The peritoneal cavity was opened, and a small incision was made at the beginning and the end of a 15-20 cm jejunum segment. Polyethylene catheters were inserted and secured into the two ends. The input catheter was connected with a pump-driven syringe filled with a solution. The jejunum segment was perfused initially with PBS buffer to remove any residual debris at a flow rate of 0.4 ml/min. Purified peptide solutions (peptide concentration ranges from 25-100 μM) were then perfused at 0.4 ml/min through the jejunum segment with a 10-40 min residence time. In the case of a co-perfusion, the input catheter is connected with two simultaneous syringes, one with a peptide solution and the other with the prolyl endopeptidase solution (concentration ranges from 50-500 μU/μl). Fluid from the output catheter was collected into small centrifuge tubes in dry ice for subsequent analysis. The collected digestive products were analyzed by HPLC on a C18 column.

[5] = tested on: DPP IV from Aspergillus fumigatus; experiment: rat BBM with exogenous DPP IV from Aspergillus fumigatus (0.28 μU DPP IV/ng BBM protein); conditions: 37° C., up to four hours
[6] = tested on: carboxypeptidase A (C-0261, Sigma) and/or leucine aminopeptidase (L-5006, Sigma); experiment: 10 μg/ml carboxypeptidase A and/or 5.9 μg/ml leucine aminopeptidase; conditions: 37° C., up to 160 min
[7] = tested on: prolyl endopeptidase (PEP, specific activity 28 μU/pg) from Flavobacterium meningosepticum (US Biological, MA); experiment: 27 ng/μl brush border membranes with exogenous prolyl endopeptidase from Flavobacterium meningosepticum; conditions: rat, up to one hour
EPB2 = target: T1, EPB2 (Hordeum vulgare, UniProt P25250); experiment: Inhibition of EPB2 α2-gliadin digestion; type: biochemical, barley (Hordeum vulgare subsp. vulgare)
T1 construct: made in house; host or cells: E. coli BL21, plasmid pMTB1 (pET28b), inclusion bodies solubilised in 7 M urea
Description: The pH optimum of proEPB2 activation and α2-gliadin digestion is 2.4-3.5, which can therefore provide a treatment for Celiac Sprue consisting of oral administration of proEPB2.

trypsin = experiment: trypsin
chymotrypsin = experiment: chymotrypsin
elastase = elastase at a high (non-physiological) concentration of 100 ng/μl
[8] = BBM with captopril in phosphate buffered saline:Tris buffered saline=9:1; conditions: rat, up to overnight
[9] = resuspended rat brush border membrane (BBM) preparations in phosphate buffered saline; conditions: 37° C.
[10] = rat brush border membrane (BBM) protein preparations, 27 ng/μl, in phosphate buffered saline; conditions: 37° C, up to overnight
[11] = tested on: rabbit lung DCP (Cortex Biochemicals, CA); experiment: BBM with exogenous rabbit lung DCP in phosphate buffered saline:Tris buffered saline=9:1; conditions: rat, up to overnight

T1 sequence (P25250 134-373): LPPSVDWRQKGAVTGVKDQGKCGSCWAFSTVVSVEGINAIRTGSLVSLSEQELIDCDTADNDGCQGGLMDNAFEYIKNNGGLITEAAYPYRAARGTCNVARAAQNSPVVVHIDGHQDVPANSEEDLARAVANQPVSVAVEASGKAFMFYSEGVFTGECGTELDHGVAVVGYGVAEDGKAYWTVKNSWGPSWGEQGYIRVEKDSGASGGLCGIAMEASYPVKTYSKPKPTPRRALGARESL

LQLQPFPQPQLPYPQPQLPYPQPQLPYPQPQPF [33-mer]
half-life of digestion [1]: > 20 h
stability toward gastric and pancreatic proteases [2]: remained intact despite prolonged exposure to proteases
Amount of Peptides Digested after 15 hours [3]: <20%
stability in the perfusion experiment [4]: most of the 33-mer gliadin peptide remained intact

QLQPFPQPQLPY
fragment found [5]: QLQPFPQPQLP
fragment found [6]: QLQPFPQPQLP; also recorded: QPFPQPQLP
cleaved bond [7]: P-Q, major

CC(=O)N[C@@H](CC(C)C)C(=O)N[C@@H](CC(C)C)C(=O)N[C@H](C=O)CCCNC(=N)N [leupeptin]
effect on α2-gliadin digestion by EPB2 (EPB2): inhibits this activity

PQPQLPYPQPQLPY
not cleaved (trypsin): No proteolysis was detected
not cleaved (chymotrypsin): No proteolysis was detected
cleaved bond (elastase): Q-L
fragment found [8]: PQPQLPYPQPQLP
cleaved bond [9]: P-Y, first_seen
not cleaved [10]: no observed N-terminal processing
fragment found [6]: PQPQLPYPQPQLP
fragment found [11]: PQPQLPYPQPQLP
